Holding throughout (type): binding
What all share (details): read-out: [drawing 1] /

For assay [1], the target named is T1, UbiG (Escherichia coli, UniProt P17993).
T1 construct: full-length, 240 residues, pET28a-UbiG (1-240), expressed in E. coli BL21 (DE3); purified as described previously
T1 sequence (P17993 1-240): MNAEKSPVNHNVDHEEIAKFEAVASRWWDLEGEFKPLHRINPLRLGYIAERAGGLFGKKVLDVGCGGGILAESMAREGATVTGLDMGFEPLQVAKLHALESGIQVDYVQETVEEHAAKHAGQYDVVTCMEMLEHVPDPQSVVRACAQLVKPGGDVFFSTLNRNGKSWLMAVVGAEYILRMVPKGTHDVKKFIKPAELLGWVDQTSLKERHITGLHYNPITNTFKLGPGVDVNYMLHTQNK
The assay is described as follows: isothermal titration calorimetry. The text has this: (§1) isothermal titration calorimetry on UbiG

Assay [2] has as its target T2, UbiG (Escherichia coli, UniProt P17993, I177A/P182A/V181A).
T2 construct: full-length, 240 residues, pET28a-UbiG (1-240), expressed in E. coli BL21 (DE3); purified as described previously
The assay is described as follows: isothermal titration calorimetry.
Source text: as §1
Background: Isothermal titration calorimetry measures the heat released or taken up as one component is titrated into another.

For assay [3], the target named is T3, UbiG (Escherichia coli, UniProt P17993, V172A/Y176A).
T3 construct: full-length, 240 residues, pET28a-UbiG (1-240), expressed in E. coli BL21 (DE3); purified as described previously
T3 sequence (P17993 whole entry V172A/Y176A): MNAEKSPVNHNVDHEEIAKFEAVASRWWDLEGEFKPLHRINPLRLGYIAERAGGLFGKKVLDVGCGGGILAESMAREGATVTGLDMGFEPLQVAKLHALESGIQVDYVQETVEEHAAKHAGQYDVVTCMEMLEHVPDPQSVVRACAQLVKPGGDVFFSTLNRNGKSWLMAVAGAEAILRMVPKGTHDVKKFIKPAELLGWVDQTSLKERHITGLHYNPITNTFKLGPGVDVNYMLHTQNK
The assay is described as follows: isothermal titration calorimetry.
Source text: as §1

The target in assay [4] is T4, UbiG (Escherichia coli, UniProt P17993, DEL165-187).
T4 construct: full-length, 240 residues, pET28a-UbiG (1-240), expressed in E. coli BL21 (DE3); purified as described previously
T4 sequence (P17993 other isoform, or with tags, fused parts or gaps DEL165-187): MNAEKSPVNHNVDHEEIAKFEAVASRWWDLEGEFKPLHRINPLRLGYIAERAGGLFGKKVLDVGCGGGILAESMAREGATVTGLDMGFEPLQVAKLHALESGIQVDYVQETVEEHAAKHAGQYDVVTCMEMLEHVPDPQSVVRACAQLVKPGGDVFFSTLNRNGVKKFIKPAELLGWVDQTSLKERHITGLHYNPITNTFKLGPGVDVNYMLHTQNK
The assay is described as follows: isothermal titration calorimetry; X-ray structure of the complex […] Å.

T2 sequence (P17993 whole entry I177A/V181A/P182A): as the sequence (P17993 whole entry V172A/Y176A) above, with A172V, A176Y, I177A, V181A, P182A counted along it

On to `Nc1ncnc2c1ncn2[C@@H]1O[C@H](CSCC[C@H](N)C(=O)O)[C@@H](O)[C@H]1O` [SAH], for which the Kd was 104 ± 17.2 µM at UbiG [1], 2.77 ± 0.36 µM at UbiG [2], 3.37 ± 0.84 µM at UbiG [3] and 1.84 ± 0.16 µM on UbiG [4].

The record behind these values is publication PMC4796655, “Structural insights into the methyl donor recognition model of a novel membrane-binding protein UbiG” (Scientific Reports, 2016).
